Assay results reported in patent US6277886A (priority 1996, dated 2001).
Structures can show the parent of a compound that is named as a salt. Where two headings read alike, the source gives them in different places.

How the values were obtained:
[1] = tested on: pressor response to catecholamines in the cat; assay: Pressor response to catecholamines in the anesthetized cat before and after S(-)PAI; type: in vivo; conditions: before S(-)PAI
Method: Cats were anesthetized with i.v. nembutal 25 mg/kg. Anesthesia was maintained by additional injections of nembutal, 5 mg/kg, as needed. The femoral artery was cannulated and connected to a Statham pressure transducer for blood pressure recordings on a Grass multichannel Polygraph. The femoral vein was cannulated for i.v. injection of drugs.

noradrenaline uptake = conditions: in words; cited from earlier work
[2] = tested on: noradrenaline depletion in rodents; conditions: in words; cited from earlier work
ICR male mice = assay: Hypobaric hypoxia model, survival time of mice at 200 mmHg; type: in vivo; conditions: control = 100
Description: The model used is analogous to the one described by M. Nakanishi et al., Life Sci. 13: 467-476 (1973); and by Y'Oshiro et al., J. Med. Chem. 34: 2014-2023 (1991). A group of 4 ICR male mice each weighing 20-25 g were placed in a 2.5 L glass chamber (A) at atmospheric pressure. Chamber A is connected to a 12 L chamber (B) through a valve which is initially […] closed. The air in chamber B was evacuated to a pressure of 100 mmHg. The valve between the two chambers was opened rapidly, whereupon the pressure in chamber A fell within 14 seconds to 200 mmHg. The survival time of the mice in chamber A was determined to a maximum hypobaric exposure of 15 minutes. Effect of drug pretreatment on survival is calculated as the percent of the survivai time of the drug-treated group as compared to saline-injected or vehicle-injected group. Control groups were tested twice, before and after each experiment and consisted of 12 to 16 mice, 4 per group. Each tested group always consisted of 4 mice in order to ensure a constant residual volume of oxygen in all tests. […] The effect of each dose of the test drug was determined in duplicate, using a total of 8 mice, 4 per group. All drugs were administered i.p. one hour prior to hypoxia. Positive reference drugs were sodium pentobarbital at a dose of 40 mg/kg, or diazepam at a dose of 10 mg.kg, given 0.5 hour prior to hypoxia.

MAO-A = MAO-A (Rattus norvegicus, UniProt P21396); assay: in vivo; conditions: for ED50: rat, read-out: IC-50 for Inhibition of MAO-A
MAO-A, sequence (P21396 whole entry): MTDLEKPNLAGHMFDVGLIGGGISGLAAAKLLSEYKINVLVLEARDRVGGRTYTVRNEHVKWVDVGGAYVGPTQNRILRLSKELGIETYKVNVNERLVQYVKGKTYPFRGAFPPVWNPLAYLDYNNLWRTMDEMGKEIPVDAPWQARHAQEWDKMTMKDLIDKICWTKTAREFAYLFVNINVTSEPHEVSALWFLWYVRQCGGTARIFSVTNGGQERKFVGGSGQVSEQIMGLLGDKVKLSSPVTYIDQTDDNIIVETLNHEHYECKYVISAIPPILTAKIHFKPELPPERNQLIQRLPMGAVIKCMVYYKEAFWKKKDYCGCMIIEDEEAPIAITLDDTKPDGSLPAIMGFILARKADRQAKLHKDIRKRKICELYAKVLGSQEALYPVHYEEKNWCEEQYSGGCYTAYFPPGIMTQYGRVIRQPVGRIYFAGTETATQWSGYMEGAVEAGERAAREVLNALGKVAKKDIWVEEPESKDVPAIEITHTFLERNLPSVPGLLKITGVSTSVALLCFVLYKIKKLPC
Method: (§1) Rats (male Sprague-Dawley-derived) weighing 250±20 g were treated with one of the enantionmers or the racemic form of PAI by intraperitoneal injection (ip) or oral gavage (po), and decapitated 1h or 2h later respectively. Groups of three rates were used for each dose level of substance, and MAO activity determined in brain and liver using the general technique described in Example 19 of U.S. Pat. No. 5,387,612. The amount of protein in each incubation was determined using the Follin-Lowrymethod, and enzyme activity calculated as nmol of substrate metabolized per hour of incubation for each mg of protein. Activity of MAO in tissues from animals treated with the enantiomers or the racemic form of PAI was expressed as a percentage of the enzyme activity in a group of control animals administered vehicle (water for oral administration, 0.9% saline for ip injection).

MAO-B [3] = molecular target: MAO-B (Rattus norvegicus, UniProt P19643); assay: in vivo; conditions: for activity for inhibition of MAO-B: in words; for ED50: rat
MAO-B (Rattus norvegicus, UniProt P19643), sequence (P19643 whole entry): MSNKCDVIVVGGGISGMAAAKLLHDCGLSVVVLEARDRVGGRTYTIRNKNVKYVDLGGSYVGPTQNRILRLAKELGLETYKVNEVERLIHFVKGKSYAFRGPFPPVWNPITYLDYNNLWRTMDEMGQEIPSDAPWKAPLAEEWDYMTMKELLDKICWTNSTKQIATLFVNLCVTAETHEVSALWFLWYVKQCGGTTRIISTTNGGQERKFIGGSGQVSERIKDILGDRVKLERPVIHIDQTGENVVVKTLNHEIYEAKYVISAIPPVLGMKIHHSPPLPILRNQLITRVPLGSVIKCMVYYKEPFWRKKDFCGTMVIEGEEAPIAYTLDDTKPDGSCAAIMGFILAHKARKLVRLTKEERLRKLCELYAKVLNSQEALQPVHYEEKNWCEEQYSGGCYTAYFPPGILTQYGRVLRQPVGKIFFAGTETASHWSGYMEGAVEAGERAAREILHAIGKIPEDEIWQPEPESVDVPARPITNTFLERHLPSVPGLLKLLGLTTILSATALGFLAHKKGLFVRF
Method: as §1

[4] = tested on: reserpine induced ptosis in rats; assay: Reserpine-induced ptosis in rats; type: in vivo; conditions: reserpine 5 mg/kg i.p., 0-4 scale, 4 = eyes completely open, saline 0.86
Description: Reserpine-induced ptosis and its reversal test. Reserpine causes depletion of catecholamine stores, especially norepinephrine. This effect in the live animal is manifested among other things, in ptosis. Drugs that can prevent or inhibit reserpine-induced ptosis act either directly as noradrenergic agonists, or indirectly by decreasing or preventing the metabolic elimination of endogenous norepinephrine. MAO inhibitors belong to the latter category.

human subjects = conditions: cited from earlier work
nerve cell death = conditions: sub-inhibitory levels; in words; cited from earlier work
rat optic nerve = conditions: in words; cited from earlier work
rat cerebellum cells = conditions: in words; cited from earlier work
MAO-B [5] = conditions: in vitro; cited from earlier work
MAO-A/MAO-B = conditions: in vitro; cited from earlier work
[6] = tested on: male Wistar rats after middle cerebral artery occlusion (MCA-O)
Description: In order to expose the left middle cerebral artery, a cut was made in the temporal muscle. The tip of the coronoid process of mandible was excised as well and removed with a fine rongeur. Craniectomy was made with a dental drill at the junction between the median wall and the roof of the inferotemporal fossa.
The dura matter was opened carefully using a 27 gauge needle. […] Following this, the temporalis muscle was sutured and laid over the craniectomy site. The skin was closed with a running 3-0 silk suture. […] The volume of brain tissue incurring damage following ischemia was determined.

[7] = 10 mg/kg i.p., one hour prior to hypoxia
[8] = 50 mg/kg i.p., one hour prior to hypoxia
[9] = 100 mg/kg i.p., one hour prior to hypoxia
[10] = po liver, 2 h after oral gavage

Q: With `NC[C@H](O)c1ccc(O)c(O)c1` [norepinephrine, reference compound] as the compound, how does the “Δ mean arterial pressure before S(-)PAI” value ([1]; 0.02 μg/kg i.v.) read?
A: 8 mmHg

Q: What about the “Δ mean arterial pressure before S(-)PAI” value ([1]; 0.05 μg/kg i.v.) of the same compound?
A: 23 mmHg

Q: And the “Δ mean arterial pressure before S(-)PAI” value ([1]; 0.10 μg/kg i.v.)?
A: 31 mmHg

Q: And the “Δ mean arterial pressure before S(-)PAI” value ([1]; 0.20 μg/kg i.v.)?
A: 46 mmHg

Q: For `NCCc1ccc(O)cc1` [tyramine, reference compound], which “Δ mean arterial pressure before S(-)PAI” value ([1]; 2.0 μg/kg i.v.) is on record?
A: 11 mmHg

Q: And the “Δ mean arterial pressure before S(-)PAI” value ([1]; 5.0 μg/kg i.v.)?
A: 19 mmHg

Q: And the “Δ mean arterial pressure before S(-)PAI” value ([1]; 10.0 μg/kg i.v.)?
A: 26 mmHg

Q: And the “Δ mean arterial pressure before S(-)PAI” value ([1]; 20.0 μg/kg i.v.)?
A: 42 mmHg

Q: Which “noradrenaline uptake inhibition compared to R(-) deprenyl” value (noradrenaline uptake) does the source give for `C#CCN(C)[C@@H](C)Cc1ccccc1` [S(+) deprenyl] here?
A: superior noradrenaline uptake inhibitor as compared to R(-) deprenyl

Q: And the “neuroprotective activity (percent restoration of noradrenaline after DSP-4)” value [2]?
A: far lower "neuroprotective activity" in comparison with R(-) deprenyl

Q: For `CN1C(=O)CN=C(c2ccccc2)c2cc(Cl)ccc21` [Diazepam], which “% protection ± SD relative to control (relative survival time)” value (“% protection ± SD relative to control” for short) (ICR male mice; 10 mg/kg i.p., 0.5 hour prior to hypoxia) is on record?
A: 430 ± 59%

Q: With `CCCC(C)C1(CC)C(=O)NC(=O)NC1=O` (stereo not shown) [Pentobarbital] as the compound, how does the “% protection ± SD relative to control” value (ICR male mice; 20 mg/kg i.p., 0.5 hour prior to hypoxia) read?
A: 325 ± 166%

Q: What does the source list for `C#CCN[C@H]1CCc2ccccc21` [S(-)PAI mesylate, S-(-)-N-Propargyl-1-aminoindan mesylate]?
A: % protection ± SD relative to control (relative survival time) (ICR male mice; [7]): 84 ± 47%; % protection ± SD relative to control (relative survival time) (ICR male mice; [8]): 406 ± 247%; % protection ± SD relative to control (relative survival time) (ICR male mice; [9]): 390 ± 197%; activity for inhibition of MAO-A (MAO-A; in words): extremely low activity; IC-50 for Inhibition of MAO-A (MAO-A; ip liver, 1 h after ip injection): > 10 mg/kg; IC-50 for Inhibition of MAO-A (MAO-A; [10]): > 10 mg/kg; ED50 (MAO-A; ip, 1 h): > 10 mg/kg; ED50 (MAO-A; po, 2 h): > 10 mg/kg; activity for inhibition of MAO-B (MAO-B [3]): extremely low activity; ED50 (MAO-B [3]; ip, 1 h, read-out: IC-50 for Inhibition of MAO-B, ip brain, 1 h after ip injection): > 10 mg/kg; ED50 (MAO-B [3]; ip, 1 h, read-out: IC-50 for Inhibition of MAO-B, ip liver, 1 h after ip injection): > 10 mg/kg; ED50 (MAO-B [3]; po, 2 h, read-out: IC-50 for Inhibition of MAO-B, po brain, 2 h after oral gavage): > 10 mg/kg; ED50 (MAO-B [3]; po, 2 h, read-out: IC-50 for Inhibition of MAO-B, po liver, 2 h after oral gavage): > 10 mg/kg

Q: For `C#CCN(C)[C@H](C)Cc1ccccc1` [R(-)Deprenyl], which “neuroprotective activity (percent restoration of noradrenaline after DSP-4)” value [2] is on record?
A: displayed "neuroprotective activity"

Q: What about the “Mean score of reserpine-induced ptosis” value ([4]; 5 mg/kg i.p.) of the same compound?
A: 1.3

Q: And the “Mean score of reserpine-induced ptosis” value ([4]; 10 mg/kg i.p.)?
A: 3.16

Q: What about the “dose at which cardiovascular function could be compromised” value (human subjects; human subjects, daily dose, recommended dose 10 mg) of the same compound?
A: 30 to 40 mg

Q: And the “safety factor in clinical practice” value (human subjects; human)?
A: 3 to 4

Q: And the “prevention of nerve cell death” value (nerve cell death)?
A: prevent nerve cell death

Q: Which results are given for `C#CCN[C@@H]1CCc2ccccc21` [R(+)PAI, R(+) enantiomer of N-propargyl-1-aminoindan]?
A: slowing neuronal degeneration after crushing the rat optic nerve (rat optic nerve): slowing neuronal degeneration; prevention of NMDA induced cell death (rat cerebellum cells): active as a "neuroprotective agent"; activity as inhibitor of MAO-B relative to S(-)PAI (MAO-B [5]): ~7,000 times more active; selectivity for MAO-B than MAO-A (MAO-A/MAO-B): more than 29 times more selective; improvement in neurological score severity [6]: ~20%

Q: Which “% protection ± SD relative to control” value (ICR male mice; [7]) does the source give for `C#CCN[C@@H]1CCc2ccccc21` [R(+)PAI mesylate, reference compound] here?
A: 116 ± 47%

Q: What about the “% protection ± SD relative to control” value (ICR male mice; [8]) of the same compound?
A: 410 ± 151%

Q: And the “% protection ± SD relative to control” value (ICR male mice; [9])?
A: 358 ± 179%

Q: And the “IC-50 for Inhibition of MAO-A” value (MAO-A; [10])?
A: > 5 mg/kg

Q: And the ED50 (MAO-A; po, 2 h)?
A: > 5 mg/kg

Q: And the “activity for inhibition of MAO-B” value (MAO-B [3])?
A: selectivity

Q: Which results are given for `CNC[C@H](O)c1cccc(O)c1` [phenylephrine, reference compound]?
A: Δ mean arterial pressure before S(-)PAI ([1]; 0.20 μg/kg i.v.): 9 mmHg; Δ mean arterial pressure before S(-)PAI ([1]; 0.50 μg/kg i.v.): 17 mmHg; Δ mean arterial pressure before S(-)PAI ([1]; 1.0 μg/kg i.v.): 21 mmHg; Δ mean arterial pressure before S(-)PAI ([1]; 2.0 μg/kg i.v.): 40 mmHg
